“Also recorded” adds a separate entry of the source.
Assays:
[1] = test system: MDA-MB-231, MCF-10A-H-RasV12 and MCF-10A-Vector cells; assay: Biotin-mediated cell uptake of PEG-FITC (fluorescence microscopy); assay type: cell-based, human; conditions: 15 minute-treatment; for cellular uptake: 1 μM, cancer and noncancerous cells
[2] = 3-component inhibition fluorescence assay (ARS-bortezomib competition); assay type: physicochemical; conditions: from pH 7.4 to pH 5.5
Procedure: 3-component inhibition fluorescence assay. The fluorescence assay for characterizing pH-sensitive binding between bortezomib and catechol was carried out using procedures modified from the aforementioned literature method. Briefly, a solution of 0.1 mM ARS was prepared in 0.1 M phosphate monosodium buffer (solution A). Bortezomib was dissolved in solution A to achieve final concentration of 1 mM (solution B). The pH of both solution A and solution B was adjusted to 5.5, 6.5 and 7.4 using a 4N NaOH aqueous solution. Solution B was titrated to solution A to make a series of solutions that contain constant concentration of ARS (0.1 mM) and varying concentration of bortezomib (0˜1 mM) at defined pH. After mixing the two solutions, the final solution stood for 5 minutes before fluorescence measurement at excitation 495 nm, emission 565 nm on SpectraMax M5 (Molecular Devices, Sunnyvale, Calif.). This procedure was used to probe the pH-dependence of ARS-BTZ binding (FIG. 6). The binding capacity of catechol for bortezomib was characterized based on the inhibition of catechol on ARS-bortezomib binding, resulting in a decrease in fluorescence intensity. […] Fluorescence intensity of each solution was measured to plot the binding inhibition curves in FIG. 7. […] Fmax refers to the fluorescence intensity of ARS-BTZ conjugate in solution C at a defined pH. […]

[3] = H1-NMR analysis of pH-dependent dissociation of bortezomib-catechol conjugates; assay type: physicochemical; conditions: as the pH decreased from 7.4 to 5.5; 1 mM in deuterated phosphate buffer
Procedure: First, the pH-dependent reversible binding between BTZ and catechol-containing polymers was characterized using H^1-NMR spectroscopy (FIG. 3A). At pH 5.5, mixing BTZ and catechol-containing dopamine (DA) gave a spectrum similar to that of the two individual compounds superimposed on each other, indicating the presence of un-complexed BTZ and DA.
H^1-NMR analysis of pH-dependent dissociation of bortezomib-catechol conjugates. Bortezomib and dopamine hydrogen chloride were dissolved separately in d6-DMSO 0.2 M concentration. The two solutions were mixed to give a stock solution of DA-BTZ conjugate at 0.1 M in DMSO. A solution of 0.1 M monosodium phosphate in D2O was used to dilute the DA-BTZ stock to 1 mM, and pH of such solutions were adjusted with 4N NaOH in D2O to 5.5, 6.5, 7.4 and 8.5. These solutions were analyzed on AVANCE III 500 MHz (FIG. 6) and peak integrals in the range of 7.2 to 5.5 ppm were used for quantifying the degree of dissociation of DA-BTZ presented in FIG. 3B.

PEG-FITC
cellular uptake [1]: little; also recorded: minimal

PEG-catechol
decrease in binding affinity for BTZ [2]: about 60%

biotin-PEG-FITC
cellular uptake [1]: showed uptake; also recorded: rapidly taken up

O=C(O)CCCC[C@@H]1SC[C@@H]2NC(=O)N[C@@H]21 [biotin, reference compound]
inhibition of cellular uptake of biotin-PEG-FITC ([1]; free biotin in buffer): Dose-dependent inhibition

CC(C)CC(NC(=O)C(Cc1ccccc1)NC(=O)c1cnccn1)B1Oc2ccc(CCN)cc2O1 (centres unmarked) [BTZ-catechol conjugate]
increase in dissociation of the BTZ-catechol conjugate [3]: 50%

From patent US9636374B2, “pH-sensitive polymer-drug conjugates for targeted delivery of therapeutics” (priority 2011, dated 2017)
